Test results from the NIST ThermoML archive (doi:10.1016/j.jct.2005.08.001).
Numbers after ± are expanded uncertainties.

Experiments:
[1] = 313.15 K, Liquid; for mass density: 101.33 kPa, Pycnometric method; for vapor or sublimation pressure: Closed cell (Static) method
[2] = refractive index (Na D-line) (dimensionless); conditions: 298.15 K; 101.33 kPa; Liquid; Standard Abbe refractometry

Row | SMILES | mass density [1] [kg/m3] | vapor or sublimation pressure [1] [kPa] | refractive index [2]
1 | CC(=O)N(C)C [N,N-dimethylethanamide] | 922.4 ± 0.6 | 0.658 ± 0.01 | 1.43556 ± 0.00075
2 | CCO [ethanol] | 772.2 ± 0.5 | 17.89 ± 0.087 | 1.3592 ± 0.00075
3 | O [water] | – | 7.375 ± 0.025 | –
